Experimental data reported in ChEMBL document CHEMBL1250519, “Design, synthesis, and biological evaluation of halogenated N-(2-(4-oxo-1-phenyl-1,3,8-triazaspiro[4.5]decan-8-yl)ethyl)benzamides: discovery of an isoform-selective small molecule phospholipase D2 inhibitor” (J Med Chem, 2010).
The source made the active and inactive calls. No cut-off for these calls is given here.

Key:
Homo sapiens = species: Homo sapiens; assay: Selectivity ratio of IC50 for human PLD1 to IC50 for human GST-tagged PLD2A
Phospholipase D2 = Phospholipase D2 (Homo sapiens, UniProt O14939)
Description: Inhibition of human GST-tagged PLD2A in human HEK293 cells

Phospholipase D1 = molecular target: T1, Phospholipase D1 (Homo sapiens, UniProt Q13393)
T1 sequence (Q13393 whole entry): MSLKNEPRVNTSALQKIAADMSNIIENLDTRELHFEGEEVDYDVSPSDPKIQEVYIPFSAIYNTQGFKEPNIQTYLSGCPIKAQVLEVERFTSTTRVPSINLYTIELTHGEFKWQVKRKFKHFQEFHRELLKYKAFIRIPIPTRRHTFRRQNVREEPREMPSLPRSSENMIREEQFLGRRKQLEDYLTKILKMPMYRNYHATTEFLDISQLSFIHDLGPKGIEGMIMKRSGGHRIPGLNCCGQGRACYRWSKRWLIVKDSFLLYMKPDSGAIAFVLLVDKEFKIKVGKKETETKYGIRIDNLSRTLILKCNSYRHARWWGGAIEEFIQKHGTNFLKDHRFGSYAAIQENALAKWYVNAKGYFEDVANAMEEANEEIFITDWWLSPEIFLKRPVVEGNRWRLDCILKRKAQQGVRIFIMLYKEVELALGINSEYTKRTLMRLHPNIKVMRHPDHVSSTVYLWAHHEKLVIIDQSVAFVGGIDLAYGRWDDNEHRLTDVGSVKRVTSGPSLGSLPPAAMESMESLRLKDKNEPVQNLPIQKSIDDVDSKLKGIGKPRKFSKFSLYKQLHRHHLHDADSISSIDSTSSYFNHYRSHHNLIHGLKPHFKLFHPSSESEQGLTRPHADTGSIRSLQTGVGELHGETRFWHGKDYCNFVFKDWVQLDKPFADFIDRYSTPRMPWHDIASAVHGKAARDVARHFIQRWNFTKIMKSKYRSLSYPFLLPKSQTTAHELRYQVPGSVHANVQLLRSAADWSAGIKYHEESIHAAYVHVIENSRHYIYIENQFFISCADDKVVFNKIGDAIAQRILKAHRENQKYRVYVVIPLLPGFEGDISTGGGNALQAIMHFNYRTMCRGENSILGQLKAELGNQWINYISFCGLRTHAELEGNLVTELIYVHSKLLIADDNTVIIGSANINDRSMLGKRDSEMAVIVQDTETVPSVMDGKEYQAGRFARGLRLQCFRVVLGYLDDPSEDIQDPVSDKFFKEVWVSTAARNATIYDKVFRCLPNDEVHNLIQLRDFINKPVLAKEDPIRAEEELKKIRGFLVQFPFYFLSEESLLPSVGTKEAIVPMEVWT
Description: Inhibition of PLD1 in human calu1 cells

[1] = molecular target: T2, Phospholipase D1 (Homo sapiens) (UniProt Q13393); format: cell-based; settings: MDA-MB-231, 10 uM
T2 sequence (whole entry): T1 sequence (Q13393 whole entry)

Chain of Phospholipase D2 (O14939 whole entry): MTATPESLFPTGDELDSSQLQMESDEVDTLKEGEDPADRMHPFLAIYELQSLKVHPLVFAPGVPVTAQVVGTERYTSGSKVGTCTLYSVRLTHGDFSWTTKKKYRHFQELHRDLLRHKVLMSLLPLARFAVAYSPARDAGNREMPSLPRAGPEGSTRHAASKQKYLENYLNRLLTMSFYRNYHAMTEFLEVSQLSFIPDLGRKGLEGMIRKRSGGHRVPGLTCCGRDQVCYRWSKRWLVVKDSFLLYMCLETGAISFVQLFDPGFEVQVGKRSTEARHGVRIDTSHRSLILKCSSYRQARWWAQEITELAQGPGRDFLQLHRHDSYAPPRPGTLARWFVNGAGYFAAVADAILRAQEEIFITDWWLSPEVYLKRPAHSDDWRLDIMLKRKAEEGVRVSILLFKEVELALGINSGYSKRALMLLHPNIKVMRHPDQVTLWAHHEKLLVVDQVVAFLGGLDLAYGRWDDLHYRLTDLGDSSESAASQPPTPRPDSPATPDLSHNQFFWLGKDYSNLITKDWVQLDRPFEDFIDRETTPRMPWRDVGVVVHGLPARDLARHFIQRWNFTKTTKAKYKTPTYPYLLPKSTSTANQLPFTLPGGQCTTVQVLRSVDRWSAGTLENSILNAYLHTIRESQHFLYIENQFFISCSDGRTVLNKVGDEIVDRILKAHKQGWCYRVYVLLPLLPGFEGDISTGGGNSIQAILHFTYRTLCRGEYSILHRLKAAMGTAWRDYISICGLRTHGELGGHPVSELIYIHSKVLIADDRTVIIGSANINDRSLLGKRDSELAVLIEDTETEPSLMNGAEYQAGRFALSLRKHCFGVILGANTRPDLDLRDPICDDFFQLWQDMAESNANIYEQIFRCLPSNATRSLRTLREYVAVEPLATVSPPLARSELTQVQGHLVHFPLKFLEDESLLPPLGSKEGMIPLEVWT

Structure (SMILES) | Selectivity ratio (Homo sapiens) | IC50 (Phospholipase D2) | IC50 (Phospholipase D1) | inhibition [1]
O=C(NCCN1CCC2(CC1)C(=O)NCN2c1ccc(F)cc1)c1cnc2ccccc2c1 | 50 | 40 nM | 2000 nM | –
O=C(NCCN1CCC2(CC1)C(=O)NCN2c1ccc(Br)cc1)c1ccc2ccccc2c1 | 17 | 350 nM | 5900 nM | –
O=C(NCCN1CCC2(CC1)C(=O)NCN2c1cccc(Cl)c1)c1ccc(F)cc1 | 50 | 70 nM | 3470 nM | –
C[C@@H](CN1CCC2(CC1)C(=O)NCN2c1cccc(F)c1)NC(=O)c1ccc2ccccc2c1 | – | 60 nM | 10 nM | –
C[C@@H](CN1CCC(n2c(=O)[nH]c3cc(Br)ccc32)CC1)NC(=O)[C@H]1C[C@@H]1c1ccccc1 | – | – | – | Active
O=C(NCCN1CCC2(CC1)C(=O)NCN2c1cccc(Cl)c1)c1cc2cc(F)ccc2[nH]1 | 3.4 | 73 nM | 250 nM | –
O=C(NCCN1CCC2(CC1)C(=O)NCN2c1ccc(F)c(F)c1)c1ccc(F)cc1 | 9 | 660 nM | 5780 nM | –
O=C(NCCN1CCC2(CC1)C(=O)NCN2c1ccc(Cl)cc1)c1ccc(F)cc1 | 1 | 5670 nM | 5590 nM | –
O=C(NCCN1CCC2(CC1)C(=O)NCN2c1ccc(F)cc1)c1cc2cc(F)ccc2[nH]1 | 9 | 30 nM | 290 nM | –
O=C(NCCN1CCC2(CC1)C(=O)NCN2c1ccc(F)cc1)c1ccc2ccccc2c1 | 21 | 80 nM | 1700 nM | –
O=C(NCCN1CCC2(CC1)C(=O)NCN2c1ccc(F)c(F)c1)c1cc2cc(F)ccc2[nH]1 | 4 | 100 nM | 390 nM | –
O=C(NCCN1CCC2(CC1)C(=O)NCN2c1cccc(Cl)c1)c1cnc2ccccc2c1 | 5 | 165 nM | 870 nM | –
O=C(NCCN1CCC2(CC1)C(=O)NCN2c1cccc(F)c1)c1ccc(F)cc1 | – | 6700 nM | – | –
O=C(NCCN1CCC2(CC1)C(=O)NCN2c1cccc(F)c1)c1cc2cc(F)ccc2[nH]1 | 8 | 25 nM | 210 nM | –
O=C(NCCN1CCC2(CC1)C(=O)NCN2c1cccc(F)c1)c1cnc2ccccc2c1 | 40 | 63 nM | 2500 nM | –
O=C(NCCN1CCC2(CC1)C(=O)NCN2c1ccc(Br)cc1)c1ccc(F)cc1 | 1 | 8000 nM | 10000 nM | –
O=C(NCCN1CCC2(CC1)C(=O)NCN2c1ccc(F)c(F)c1)c1cnc2ccccc2c1 | 30 | 70 nM | 2060 nM | –
O=C(NCCN1CCC2(CC1)C(=O)NCN2c1ccc(Cl)cc1)c1cnc2ccccc2c1 | 17 | 200 nM | 3500 nM | –
O=C(NCCN1CCC2(CC1)C(=O)NCN2c1ccc(Cl)cc1)c1ccc2ccccc2c1 | 3.5 | 655 nM | 2270 nM | –
O=C(NCCN1CCC2(CC1)C(=O)NCN2c1cccc(Cl)c1)c1ccc2ccccc2c1 | 4 | 290 nM | 1200 nM | –
O=C(NCCN1CCC2(CC1)C(=O)NCN2c1ccc(Br)cc1)c1cc2cc(F)ccc2[nH]1 | 27 | 100 nM | 2660 nM | –
O=C(NCCN1CCC2(CC1)C(=O)NCN2c1ccc(Br)cc1)c1cnc2ccccc2c1 | 8 | 360 nM | 2700 nM | –
O=C(NCCN1CCC2(CC1)C(=O)NCN2c1ccc(F)cc1)c1ccc(F)cc1 | 23 | 610 nM | 14000 nM | –
O=C(NCCN1CCC2(CC1)C(=O)NCN2c1ccc(Cl)cc1)c1cc2cc(F)ccc2[nH]1 | 7 | 50 nM | 335 nM | –
